Measured values taken from article PMC4669708 (Cell Death & Disease, 2015).

Key:
Assay in all cases: c-ponatinib pulldown LC-MS/MS
Assay type in all cases: binding
LCK = LCK (Homo sapiens, UniProt P06239)
Method in brief: (§1)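 Affinity matrix: 25 nmol c-ponatinib/50 μl NHS-Sepharose; 10 mg whole cell lysate input; duplicate pulldowns, each run twice by LC-MS/MS. DTT/iodoacetamide, trypsin. Human SwissProt search, protein FDR <1%. Competition with free compound; fold reduction = median spectral count ratio.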

MINK1 = MINK1 (Homo sapiens, UniProt Q8N4C8)
Method in brief: as §1

PTK2B = PTK2B (Homo sapiens, UniProt Q14289)
Method in brief: as §1

NAP1L1 = target: T1, NAP1L1 (Homo sapiens, UniProt P55209)
T1 sequence (P55209 1-391): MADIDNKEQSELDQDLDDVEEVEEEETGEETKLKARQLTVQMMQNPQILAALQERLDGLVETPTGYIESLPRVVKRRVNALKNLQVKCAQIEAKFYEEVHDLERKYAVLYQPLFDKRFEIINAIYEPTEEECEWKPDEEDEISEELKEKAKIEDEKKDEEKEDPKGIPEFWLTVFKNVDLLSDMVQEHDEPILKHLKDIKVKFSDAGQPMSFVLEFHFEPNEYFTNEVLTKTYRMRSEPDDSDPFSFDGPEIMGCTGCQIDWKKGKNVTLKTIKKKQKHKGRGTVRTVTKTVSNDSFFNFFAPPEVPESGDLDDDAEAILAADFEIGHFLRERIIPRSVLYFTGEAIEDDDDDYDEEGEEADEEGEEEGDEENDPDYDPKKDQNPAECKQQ
Method in brief: as §1

IRAK1 = IRAK1 (Homo sapiens, UniProt P51617)
Method in brief: as §1

HSPA4 = HSPA4 (Homo sapiens, UniProt P34932)
Method in brief: as §1

TPM4 = TPM4 (Homo sapiens, UniProt P67936)
Method in brief: as §1

CDK16 = CDK16 (Homo sapiens, UniProt Q00536)
Method in brief: as §1

HSPA8 = HSPA8 (Homo sapiens, UniProt P11142)
Method in brief: as §1

YWHAG = target: T2, YWHAG (Homo sapiens, UniProt P61981)
T2 sequence (P61981 1-247): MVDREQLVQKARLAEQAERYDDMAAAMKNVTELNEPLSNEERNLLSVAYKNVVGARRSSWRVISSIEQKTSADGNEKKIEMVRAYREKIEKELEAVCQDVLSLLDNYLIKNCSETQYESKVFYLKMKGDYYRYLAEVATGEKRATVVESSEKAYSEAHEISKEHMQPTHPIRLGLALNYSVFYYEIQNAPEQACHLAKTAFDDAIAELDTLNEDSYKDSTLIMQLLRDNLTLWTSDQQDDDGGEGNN
Method in brief: as §1

Sequence of IRAK1 (P51617 whole entry): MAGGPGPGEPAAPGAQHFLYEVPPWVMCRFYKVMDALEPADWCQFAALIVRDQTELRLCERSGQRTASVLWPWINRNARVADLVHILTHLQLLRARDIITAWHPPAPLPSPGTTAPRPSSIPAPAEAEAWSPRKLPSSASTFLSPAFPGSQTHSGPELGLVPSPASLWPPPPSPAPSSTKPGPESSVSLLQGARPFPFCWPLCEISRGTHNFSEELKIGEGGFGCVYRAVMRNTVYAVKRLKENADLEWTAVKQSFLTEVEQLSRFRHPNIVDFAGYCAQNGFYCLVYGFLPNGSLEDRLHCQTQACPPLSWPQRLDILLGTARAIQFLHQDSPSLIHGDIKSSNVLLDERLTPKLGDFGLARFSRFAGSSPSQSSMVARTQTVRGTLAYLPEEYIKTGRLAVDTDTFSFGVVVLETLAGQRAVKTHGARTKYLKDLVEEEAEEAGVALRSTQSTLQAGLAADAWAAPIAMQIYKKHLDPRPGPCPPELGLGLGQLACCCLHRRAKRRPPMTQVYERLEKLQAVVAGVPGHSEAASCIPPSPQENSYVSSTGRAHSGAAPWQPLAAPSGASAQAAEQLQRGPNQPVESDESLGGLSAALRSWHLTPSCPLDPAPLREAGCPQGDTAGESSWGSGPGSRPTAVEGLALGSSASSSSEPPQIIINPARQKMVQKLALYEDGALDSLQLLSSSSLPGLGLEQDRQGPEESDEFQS
Sequence of PTK2B (Q14289 whole entry): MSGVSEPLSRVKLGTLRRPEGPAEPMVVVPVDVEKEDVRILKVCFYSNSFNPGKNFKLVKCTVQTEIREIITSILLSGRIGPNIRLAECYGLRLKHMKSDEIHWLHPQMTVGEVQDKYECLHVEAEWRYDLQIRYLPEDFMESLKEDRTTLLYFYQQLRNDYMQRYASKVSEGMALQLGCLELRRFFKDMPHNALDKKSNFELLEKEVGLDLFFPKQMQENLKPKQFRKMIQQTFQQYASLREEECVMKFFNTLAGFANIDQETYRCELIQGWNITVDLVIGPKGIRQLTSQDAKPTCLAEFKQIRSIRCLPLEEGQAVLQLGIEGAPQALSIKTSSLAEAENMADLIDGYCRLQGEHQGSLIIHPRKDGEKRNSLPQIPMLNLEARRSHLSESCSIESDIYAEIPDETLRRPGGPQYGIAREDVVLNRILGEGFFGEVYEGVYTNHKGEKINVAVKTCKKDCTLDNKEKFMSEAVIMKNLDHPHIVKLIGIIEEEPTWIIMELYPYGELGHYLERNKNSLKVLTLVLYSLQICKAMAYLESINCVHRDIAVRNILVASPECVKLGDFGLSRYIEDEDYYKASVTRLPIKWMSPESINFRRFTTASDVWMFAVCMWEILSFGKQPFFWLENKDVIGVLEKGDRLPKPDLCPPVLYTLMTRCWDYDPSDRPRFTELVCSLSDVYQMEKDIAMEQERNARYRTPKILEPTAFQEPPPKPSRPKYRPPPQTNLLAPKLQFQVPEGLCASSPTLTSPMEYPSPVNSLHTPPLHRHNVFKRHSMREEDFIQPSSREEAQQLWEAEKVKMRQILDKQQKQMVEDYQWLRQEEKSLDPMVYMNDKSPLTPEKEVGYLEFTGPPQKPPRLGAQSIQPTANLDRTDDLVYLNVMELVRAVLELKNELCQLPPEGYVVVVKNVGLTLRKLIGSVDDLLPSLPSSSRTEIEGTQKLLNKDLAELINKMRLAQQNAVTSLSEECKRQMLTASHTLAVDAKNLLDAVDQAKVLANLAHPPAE
Sequence of TPM4 (P67936 whole entry): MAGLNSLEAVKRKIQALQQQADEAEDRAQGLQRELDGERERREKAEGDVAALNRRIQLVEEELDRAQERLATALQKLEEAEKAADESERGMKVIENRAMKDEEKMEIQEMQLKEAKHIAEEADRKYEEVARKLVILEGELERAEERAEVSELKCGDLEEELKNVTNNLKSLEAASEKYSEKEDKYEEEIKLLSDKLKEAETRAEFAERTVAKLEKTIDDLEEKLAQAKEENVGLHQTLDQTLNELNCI
Sequence of MINK1 (Q8N4C8 whole entry): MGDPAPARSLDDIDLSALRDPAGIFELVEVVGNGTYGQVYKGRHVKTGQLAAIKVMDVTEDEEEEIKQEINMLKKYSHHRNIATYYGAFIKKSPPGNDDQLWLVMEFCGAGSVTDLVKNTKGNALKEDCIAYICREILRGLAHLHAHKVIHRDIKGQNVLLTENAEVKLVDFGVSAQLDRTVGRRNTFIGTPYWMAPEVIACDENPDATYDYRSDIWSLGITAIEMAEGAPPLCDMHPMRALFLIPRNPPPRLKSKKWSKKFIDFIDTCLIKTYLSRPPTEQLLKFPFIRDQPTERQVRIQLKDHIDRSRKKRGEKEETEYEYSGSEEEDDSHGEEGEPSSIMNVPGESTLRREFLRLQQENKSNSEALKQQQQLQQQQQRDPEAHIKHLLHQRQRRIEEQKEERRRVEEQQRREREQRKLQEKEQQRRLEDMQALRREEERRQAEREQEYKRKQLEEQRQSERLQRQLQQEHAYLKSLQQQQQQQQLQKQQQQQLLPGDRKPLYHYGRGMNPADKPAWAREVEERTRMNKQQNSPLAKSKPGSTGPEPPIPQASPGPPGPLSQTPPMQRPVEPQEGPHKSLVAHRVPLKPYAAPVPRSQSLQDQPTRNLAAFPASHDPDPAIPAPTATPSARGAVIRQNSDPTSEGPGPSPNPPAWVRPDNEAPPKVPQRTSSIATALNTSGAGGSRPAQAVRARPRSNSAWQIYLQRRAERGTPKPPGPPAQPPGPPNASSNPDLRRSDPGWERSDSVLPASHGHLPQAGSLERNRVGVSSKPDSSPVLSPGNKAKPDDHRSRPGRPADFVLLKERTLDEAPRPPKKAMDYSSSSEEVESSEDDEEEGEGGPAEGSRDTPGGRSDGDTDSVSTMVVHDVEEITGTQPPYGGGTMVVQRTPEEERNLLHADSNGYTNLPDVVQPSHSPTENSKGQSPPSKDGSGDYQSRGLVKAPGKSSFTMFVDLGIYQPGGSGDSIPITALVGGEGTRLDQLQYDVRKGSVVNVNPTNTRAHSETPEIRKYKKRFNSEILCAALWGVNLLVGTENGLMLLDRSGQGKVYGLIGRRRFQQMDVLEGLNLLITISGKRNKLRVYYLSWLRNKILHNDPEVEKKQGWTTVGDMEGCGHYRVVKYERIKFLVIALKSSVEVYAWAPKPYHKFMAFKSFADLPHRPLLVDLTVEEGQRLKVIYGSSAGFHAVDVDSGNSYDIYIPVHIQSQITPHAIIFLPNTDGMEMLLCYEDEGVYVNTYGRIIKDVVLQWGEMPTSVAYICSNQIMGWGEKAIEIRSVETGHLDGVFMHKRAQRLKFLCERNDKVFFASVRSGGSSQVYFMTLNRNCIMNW
Sequence of LCK (P06239 whole entry): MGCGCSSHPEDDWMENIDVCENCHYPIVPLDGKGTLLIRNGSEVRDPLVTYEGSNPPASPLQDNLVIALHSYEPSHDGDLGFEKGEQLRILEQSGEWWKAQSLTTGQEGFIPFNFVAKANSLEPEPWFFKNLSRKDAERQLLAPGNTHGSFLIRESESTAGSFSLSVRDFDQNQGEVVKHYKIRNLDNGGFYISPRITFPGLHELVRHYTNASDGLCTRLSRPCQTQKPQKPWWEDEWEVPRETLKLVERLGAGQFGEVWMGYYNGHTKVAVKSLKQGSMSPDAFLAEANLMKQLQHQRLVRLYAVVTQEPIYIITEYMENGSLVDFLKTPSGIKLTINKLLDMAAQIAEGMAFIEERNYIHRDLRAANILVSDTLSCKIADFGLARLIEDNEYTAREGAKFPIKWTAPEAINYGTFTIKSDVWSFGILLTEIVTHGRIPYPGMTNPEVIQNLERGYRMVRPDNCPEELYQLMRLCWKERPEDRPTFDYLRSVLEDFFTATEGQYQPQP
Sequence of CDK16 (Q00536 whole entry): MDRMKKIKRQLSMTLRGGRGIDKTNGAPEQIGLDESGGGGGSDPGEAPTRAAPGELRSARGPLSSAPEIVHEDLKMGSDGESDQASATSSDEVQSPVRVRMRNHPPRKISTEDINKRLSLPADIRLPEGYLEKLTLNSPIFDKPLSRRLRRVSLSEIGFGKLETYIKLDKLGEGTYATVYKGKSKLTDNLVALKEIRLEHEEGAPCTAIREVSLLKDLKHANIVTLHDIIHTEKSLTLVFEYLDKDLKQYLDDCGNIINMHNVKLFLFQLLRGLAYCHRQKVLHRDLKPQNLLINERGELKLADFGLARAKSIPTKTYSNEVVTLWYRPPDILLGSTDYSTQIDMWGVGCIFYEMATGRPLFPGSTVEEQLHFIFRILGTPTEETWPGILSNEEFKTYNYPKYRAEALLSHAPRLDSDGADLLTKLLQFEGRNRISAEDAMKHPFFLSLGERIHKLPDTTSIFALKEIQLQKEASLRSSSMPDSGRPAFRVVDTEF
Sequence of HSPA8 (P11142 whole entry): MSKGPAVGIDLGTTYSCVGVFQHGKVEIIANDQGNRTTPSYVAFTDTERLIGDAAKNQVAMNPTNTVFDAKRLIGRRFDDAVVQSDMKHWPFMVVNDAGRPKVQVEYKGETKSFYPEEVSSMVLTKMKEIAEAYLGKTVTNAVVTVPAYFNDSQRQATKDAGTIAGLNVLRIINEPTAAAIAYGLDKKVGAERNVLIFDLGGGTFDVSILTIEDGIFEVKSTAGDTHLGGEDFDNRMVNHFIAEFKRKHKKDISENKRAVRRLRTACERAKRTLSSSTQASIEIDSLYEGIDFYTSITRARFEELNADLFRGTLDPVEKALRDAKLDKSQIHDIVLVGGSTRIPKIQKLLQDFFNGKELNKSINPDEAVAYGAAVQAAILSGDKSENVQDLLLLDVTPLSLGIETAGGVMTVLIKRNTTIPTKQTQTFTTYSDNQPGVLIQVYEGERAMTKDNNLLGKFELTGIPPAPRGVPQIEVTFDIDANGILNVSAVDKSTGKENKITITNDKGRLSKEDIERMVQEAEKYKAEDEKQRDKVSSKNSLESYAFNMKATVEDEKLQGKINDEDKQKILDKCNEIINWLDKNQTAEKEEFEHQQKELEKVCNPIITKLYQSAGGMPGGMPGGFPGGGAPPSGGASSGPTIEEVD

Av. SC comp. (LCK; + free ponatinib): 0.75
Total SC comp. (LCK; + free ponatinib): 3
Av. SC (LCK; no competitor): 98.5
Total SC (LCK; no competitor): 394
Av. SC comp. (MINK1; + free ponatinib): 0
Total SC comp. (MINK1; + free ponatinib): 0
Av. SC (MINK1; no competitor): 4
Total SC (MINK1; no competitor): 16
Av. SC comp. (PTK2B; + free ponatinib): 0
Total SC comp. (PTK2B; + free ponatinib): 0
Av. SC (PTK2B; no competitor): 32.5
Total SC (PTK2B; no competitor): 130
Av. SC comp. (NAP1L1; + free ponatinib): 1.25
Total SC comp. (NAP1L1; + free ponatinib): 5
Av. SC (NAP1L1; no competitor): 2
Total SC (NAP1L1; no competitor): 8
Av. SC comp. (IRAK1; + free ponatinib): 4
Total SC comp. (IRAK1; + free ponatinib): 16
Av. SC (IRAK1; no competitor): 24.25
Total SC (IRAK1; no competitor): 97
Av. SC comp. (HSPA4; + free ponatinib): 1.75
Total SC comp. (HSPA4; + free ponatinib): 7
Av. SC (HSPA4; no competitor): 5.5
Total SC (HSPA4; no competitor): 22
Av. SC comp. (TPM4; + free ponatinib): 0.25
Total SC comp. (TPM4; + free ponatinib): 1
Av. SC (TPM4; no competitor): 3.5
Total SC (TPM4; no competitor): 14
Av. SC comp. (CDK16; + free ponatinib): 1.25
Total SC comp. (CDK16; + free ponatinib): 5
Av. SC (CDK16; no competitor): 10.75
Total SC (CDK16; no competitor): 43
Av. SC comp. (HSPA8; + free ponatinib): 17.25
Total SC comp. (HSPA8; + free ponatinib): 69
Av. SC (HSPA8; no competitor): 29.25
Total SC (HSPA8; no competitor): 117
Av. SC comp. (YWHAG; + free ponatinib): 3.25
Total SC comp. (YWHAG; + free ponatinib): 13
Av. SC (YWHAG; no competitor): 11.25
Total SC (YWHAG; no competitor): 45
SMILES: Cc1ccc(C(=O)Nc2ccc(CN3CCN(CCCN)CC3)c(C(F)(F)F)c2)cc1C#Cc1cnc2cccnn12 [c-ponatinib]
